According to ChEMBL document CHEMBL4342421, “Current scenario of tetrazole hybrids for antibacterial activity” (Eur J Med Chem, 2019):
≈ marks a conversion by molar mass, not a printed value.

Columns and labels:
Assay type in all cases: functional
Pseudomonas aeruginosa [1] = experiment: Antimicrobial activity against Pseudomonas aeruginosa assessed as zone of inhibition at 10 ug/ml; conditions: read-out: IZ
Aspergillus fumigatus [2] = experiment: Antifungal activity against Aspergillus fumigatus assessed as zone of inhibition at 10 ug/ml; conditions: read-out: IZ
Escherichia coli [3] = experiment: Antimicrobial activity against Escherichia coli assessed as zone of inhibition at 250 ug/ml; conditions: read-out: IZ
Pseudomonas aeruginosa [4] = experiment: Antimicrobial activity against Pseudomonas aeruginosa assessed as zone of inhibition at 250 ug/ml; conditions: read-out: IZ
Candida albicans [5] = experiment: Antifungal activity against Candida albicans assessed as zone of inhibition at 250 ug/ml; conditions: read-out: IZ
Candida albicans [6] = experiment: Antifungal activity against Candida albicans assessed as zone of inhibition at 10 ug/ml; conditions: read-out: IZ
Staphylococcus aureus [7] = experiment: Antimicrobial activity against Staphylococcus aureus assessed as zone of inhibition at 10 ug/ml; conditions: read-out: IZ
Escherichia coli [8] = experiment: Antimicrobial activity against Escherichia coli assessed as zone of inhibition at 10 ug/ml; conditions: read-out: IZ
Aspergillus niger = experiment: Antifungal activity against Aspergillus niger assessed as zone of inhibition at 250 ug/ml; conditions: read-out: IZ
Candida albicans [9] = experiment: Antifungal activity against Candida albicans
Bacillus subtilis [10] = experiment: Antimicrobial activity against Bacillus subtilis assessed as zone of inhibition at 10 ug/ml; conditions: read-out: IZ
Bacillus cereus = experiment: Antimicrobial activity against Bacillus cereus assessed as zone of inhibition at 250 ug/ml; conditions: read-out: IZ
Staphylococcus aureus [11] = experiment: Antimicrobial activity against Staphylococcus aureus assessed as zone of inhibition at 250 ug/ml; conditions: read-out: IZ
Bacillus subtilis [12] = experiment: Antimicrobial activity against Bacillus subtilis
Escherichia coli [13] = experiment: Antimicrobial activity against Escherichia coli assessed as zone of inhibition at 250 ug/ml after 24 hrs by disk diffusion method; conditions: read-out: IZ
Aspergillus fumigatus [14] = experiment: Antifungal activity against Aspergillus fumigatus assessed as zone of inhibition at 30 ug/ml; conditions: read-out: IZ
Pseudomonas aeruginosa [15] = experiment: Antimicrobial activity against Pseudomonas aeruginosa assessed as zone of inhibition at 30 ug/ml; conditions: read-out: IZ
Candida albicans [16] = experiment: Antifungal activity against Candida albicans assessed as zone of inhibition at 30 ug/ml; conditions: read-out: IZ
Staphylococcus aureus [17] = experiment: Antimicrobial activity against Staphylococcus aureus assessed as zone of inhibition at 30 ug/ml; conditions: read-out: IZ
Bacillus subtilis [18] = experiment: Antimicrobial activity against Bacillus subtilis assessed as zone of inhibition at 30 ug/ml; conditions: read-out: IZ
Escherichia coli [19] = experiment: Antimicrobial activity against Escherichia coli assessed as zone of inhibition at 30 ug/ml; conditions: read-out: IZ

CC(=O)N1CCN(c2ccc(OCC3COC(Cn4ccnc4)(c4ccc(Cl)cc4Cl)O3)cc2)CC1 (configuration not stated) [KETOCONAZOLE]
zone of inhibition at 10 µg/mL (Pseudomonas aeruginosa [1]): 23 to 24 mm | zone of inhibition at 10 µg/mL (Aspergillus fumigatus [2]): 23 to 24 mm | zone of inhibition at 250 µg/mL (Escherichia coli [3]): 23 to 26 mm | zone of inhibition at 250 µg/mL (Pseudomonas aeruginosa [4]): 23 to 26 mm | zone of inhibition at 250 µg/mL (Candida albicans [5]): 23 to 26 mm | zone of inhibition at 10 µg/mL (Candida albicans [6]): 23 to 24 mm | zone of inhibition at 10 µg/mL (Staphylococcus aureus [7]): 23 to 24 mm | zone of inhibition at 10 µg/mL (Escherichia coli [8]): 23 to 24 mm | zone of inhibition at 250 µg/mL (Aspergillus niger): 23 to 26 mm | MIC (Candida albicans [9]): 100 mg/L (≈ 188 µM) | zone of inhibition at 10 µg/mL (Bacillus subtilis [10]): 23 to 24 mm | zone of inhibition at 250 µg/mL (Bacillus cereus): 23 to 26 mm | zone of inhibition at 250 µg/mL (Staphylococcus aureus [11]): 23 to 26 mm | MIC (Bacillus subtilis [12]): 100 mg/L (≈ 188 µM)

CC1(C)S[C@@H]2[C@H](NC(=O)[C@H](N)c3ccc(O)cc3)C(=O)N2[C@H]1C(=O)O [AMOXICILLIN]
zone of inhibition at 250 µg/mL (Escherichia coli [3]): 21 to 27 mm | zone of inhibition at 250 µg/mL (Escherichia coli [13]): 21 to 27 mm | zone of inhibition at 250 µg/mL (Pseudomonas aeruginosa [4]): 21 to 27 mm | zone of inhibition at 30 µg/mL (Aspergillus fumigatus [14]): 25 to 28 mm | zone of inhibition at 30 µg/mL (Pseudomonas aeruginosa [15]): 25 to 28 mm | zone of inhibition at 30 µg/mL (Candida albicans [16]): 25 to 28 mm | zone of inhibition at 250 µg/mL (Candida albicans [5]): 21 to 27 mm | zone of inhibition at 250 µg/mL (Aspergillus niger): 21 to 27 mm | zone of inhibition at 30 µg/mL (Staphylococcus aureus [17]): 25 to 28 mm | zone of inhibition at 30 µg/mL (Bacillus subtilis [18]): 25 to 28 mm | zone of inhibition at 250 µg/mL (Bacillus cereus): 21 to 27 mm | zone of inhibition at 250 µg/mL (Staphylococcus aureus [11]): 21 to 27 mm | zone of inhibition at 30 µg/mL (Escherichia coli [19]): 25 to 28 mm
